Test results published in patent publication US10144742B2 (Millennium Pharmaceuticals, Inc., priority 2014, dated 2018).

Legend:
hNAMPT protein = hNAMPT protein (Homo sapiens (Human), UniProt P43490); assay: NAMPT enzyme assay (TR-FRET/HTRF, BodiPY ligand, anti 6His-Tb); type: binding; conditions: for inhibition at 1 µM: NAMPT inhibition at compound concentration 1 μM, read-out: Percent Inhibition; for IC50: NAMPT inhibition, IC50 range class, read-out: IC50
Method in brief: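 Compound or DMSO was incubated for 1 h at room temperature, protected from light, with BodiPY ligand and hNAMPT labelled by terbium anti-6His antibody. The 520 nm to 486 nm emission ratio after 320 nm excitation gave inhibition versus vehicle, from which concentration-response curves yielded IC50.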

PC3 cells = assay: PC3 growth inhibition (Cell-titer glo, 72 hours); type: cell-based; conditions: Homo sapiens, PC-3; compound concentration 1.667 μM; PC3 cells, 72 hours, Cell-titer glo; read-out: Percent Inhibition (PC3 growth inhibition)
Method in brief: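 Compounds in AIM serum-free medium were applied for 72 h at 37 °C, 5% CO2 to PC3 cells plated overnight from RPMI1640 culture. Luminescence after 10 min CellTiter-Glo, normalised to DMSO, gave % viability at 1 μM or 1.667 μM, or GI50/LD50.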

Chain of hNAMPT protein (P43490 whole entry): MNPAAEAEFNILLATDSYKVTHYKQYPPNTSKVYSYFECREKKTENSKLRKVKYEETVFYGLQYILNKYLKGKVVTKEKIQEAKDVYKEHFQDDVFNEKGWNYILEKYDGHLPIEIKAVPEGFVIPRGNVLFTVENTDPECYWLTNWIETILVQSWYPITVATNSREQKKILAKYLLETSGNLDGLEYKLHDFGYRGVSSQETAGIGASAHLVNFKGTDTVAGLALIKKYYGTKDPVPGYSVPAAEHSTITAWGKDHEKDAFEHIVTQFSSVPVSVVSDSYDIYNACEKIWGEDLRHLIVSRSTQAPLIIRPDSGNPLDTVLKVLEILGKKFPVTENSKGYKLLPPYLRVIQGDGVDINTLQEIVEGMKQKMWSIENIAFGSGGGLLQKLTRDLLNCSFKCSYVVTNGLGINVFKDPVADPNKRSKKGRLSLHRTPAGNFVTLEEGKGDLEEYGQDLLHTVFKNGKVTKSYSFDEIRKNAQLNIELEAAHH

SMILES | inhibition at 1 µM (hNAMPT protein) [%] | IC50 (hNAMPT protein) [µM] | inhibition at 1.667 µM (PC3 cells) [%]
O=C(NCCCc1ncc[nH]1)c1ccc2nc(OCc3ccccn3)c(-c3ccc(F)cc3)nc2c1 [Compound I-396, 3-(4-fluorophenyl)-N-[3-(1H-imidazol-2-yl)propyl]-2-(pyridin-2-ylmethoxy)quinoxaline-6-carboxamide] | 98 | < 0.1 | 2
O=C(NCCCc1ncc[nH]1)c1ccc2nc(-c3ccc(F)cc3)c(-c3ccc(Cl)c(Cl)c3)nc2c1 [Compound I-397, 3-(3,4-dichlorophenyl)-2-(4-fluorophenyl)-N-[3-(1H-imidazol-2-yl)propyl]quinoxaline-6-carboxamide] | 97 | < 0.1 | 2
COc1cccc(-c2nc3cc(C(=O)NCCCc4ncc[nH]4)ccc3nc2-c2ccc(F)cc2)c1F [Compound I-398, 3-(2-fluoro-3-methoxyphenyl)-2-(4-fluorophenyl)-N-[3-(1H-imidazol-2-yl)propyl]quinoxaline-6-carboxamide] | 93 | < 0.1 | 2
O=C(NCCCc1ncc[nH]1)c1ccc2nc(-c3ccc(F)cc3)c(-c3cc(F)ccc3Cl)nc2c1 [Compound I-399, 3-(2-chloro-5-fluorophenyl)-2-(4-fluorophenyl)-N-[3-(1H-imidazol-2-yl)propyl]quinoxaline-6-carboxamide] | 95 | < 0.1 | 1
O=C(NCCCc1ncc[nH]1)c1ccc2nc(OC3CCCC3)c(-c3ccc(F)cc3)nc2c1 [Compound I-400, 2-(cyclopentyloxy)-3-(4-fluorophenyl)-N-[3-(1H-imidazol-2-yl)propyl]quinoxaline-6-carboxamide] | 97 | < 0.1 | 2
CS(=O)(=O)CCOc1nc2ccc(C(=O)NCCCc3ncc[nH]3)cc2nc1-c1ccc(F)cc1 [Compound I-401, 3-(4-fluorophenyl)-N-[3-(1H-imidazol-2-yl)propyl]-2-[2-(methylsulfonyl)ethoxy]quinoxaline-6-carboxamide] | 69 | 0.1 to 0.5 | 99
CCOc1nc2ccc(C(=O)NCCCc3ncc[nH]3)cc2nc1-c1ccc(Cl)cc1 [Compound I-402, 3-(4-chlorophenyl)-2-ethoxy-N-[3-(1H-imidazol-2-yl)propyl]quinoxaline-6-carboxamide] | 97 | < 0.1 | 2
CC(C)Oc1nc2ccc(C(=O)NCc3ccc4nccn4c3)cc2nc1-c1ccc(Cl)s1 [Compound I-403, 3-(5-chloro-2-thienyl)-N-(imidazo[1,2-a]pyridin-6-ylmethyl)-2-isopropoxyquinoxaline-6-carboxamide] | 89 | 0.1 to 0.5 | 0
O=C(NCCCc1ncc[nH]1)c1ccc2nc(OC3CC4(CCN4)C3)c(-c3ccc(F)cc3)nc2c1 (stereo not drawn) [Compound I-404, 2-(1-azaspiro[3.3]hept-6-yloxy)-3-(4-fluorophenyl)-N-[3-(1H-imidazol-2-yl)propyl]quinoxaline-6-carboxamide] | > 99 | < 0.1 | 1
O=C(NCCCc1ncc[nH]1)c1ccc2nc(CN3CCOCC3)c(-c3ccc(F)cc3)nc2c1 [Compound I-405, 3-(4-fluorophenyl)-N-[3-(1H-imidazol-2-yl)propyl]-2-(morpholin-4-ylmethyl)quinoxaline-6-carboxamide] | 72 | 0.1 to 0.5 | 3
O=C(NCCCc1ncc[nH]1)c1ccc2nc(OCC3CCOCC3)c(-c3ccc(F)cc3)nc2c1 [Compound I-406, 3-(4-fluorophenyl)-N-[3-(1H-imidazol-2-yl)propyl]-2-(tetrahydro-2H-pyran-4-ylmethoxy)quinoxaline-6-carboxamide] | > 99 | < 0.1 | 2
N#CC1(COc2nc3ccc(C(=O)NCCCc4ncc[nH]4)cc3nc2-c2ccc(F)cc2)CCC1 [Compound I-407, 2-[(1-cyanocyclobutyl)methoxy]-3-(4-fluorophenyl)-N-[3-(1H-imidazol-2-yl)propyl]quinoxaline-6-carboxamide] | > 99 | < 0.1 | 2
O=C(NCc1cn2cccnc2n1)c1ccc2nc(-c3ccc(F)cc3)c(-c3ccc(F)cc3)nc2c1 [Compound I-408, 2,3-bis(4-fluorophenyl)-N-(imidazo[1,2-a]pyrimidin-2-ylmethyl)quinoxaline-6-carboxamide] | 85 | 0.1 to 0.5 | > 99
O=C(NCCCc1ncc[nH]1)c1ccc2nc(OCc3cccnc3)c(-c3ccc(F)cc3)nc2c1 [Compound I-409, 3-(4-fluorophenyl)-N-[3-(1H-imidazol-2-yl)propyl]-2-(pyridin-3-ylmethoxy)quinoxaline-6-carboxamide] | 98 | < 0.1 | 2
O=C(NCCCc1ncc[nH]1)c1ccc2nc(-c3ccc(F)cc3)c(-c3cc(Cl)cnc3F)nc2c1 [Compound I-410, 3-(5-chloro-2-fluoropyridin-3-yl)-2-(4-fluorophenyl)-N-[3-(1H-imidazol-2-yl)propyl]quinoxaline-6-carboxamide] | 98 | 0.1 to 0.5 | 2
COCC(COC)Oc1nc2ccc(C(=O)NCCCc3ncc[nH]3)cc2nc1-c1ccc(F)cc1 [Compound I-411, 2-[(1,3-dimethoxypropan-2-yl)oxy]-3-(4-fluorophenyl)-N-[3-(1H-imidazol-2-yl)propyl]quinoxaline-6-carboxamide] | 97 | 0.1 to 0.5 | 2
O=C(NCCCc1ncc[nH]1)c1ccc2nc(-c3ccc(F)cc3)c(-c3cc4ccccc4s3)nc2c1 [Compound I-412, 3-(1-benzothiophen-2-yl)-2-(4-fluorophenyl)-N-[3-(1H-imidazol-2-yl)propyl]quinoxaline-6-carboxamide] | 96 | 0.1 to 0.5 | 6
Cc1nccn1-c1nc2ccc(C(=O)NCCCc3ncc[nH]3)cc2nc1-c1ccc(F)cc1 [Compound I-413, 3-(4-fluorophenyl)-N-[3-(1H-imidazol-2-yl)propyl]-2-(2-methyl-1H-imidazol-1-yl)quinoxaline-6-carboxamide] | 80 | 0.1 to 0.5 | 3
CC(C)Oc1nc2ccc(C(=O)NCCCc3ncc[nH]3)cc2nc1-c1cc(C#N)ccc1F [Compound I-414, 3-(5-cyano-2-fluorophenyl)-N-[3-(1H-imidazol-2-yl)propyl]-2-isopropoxyquinoxaline-6-carboxamide] | 95 | < 0.1 | 1
COc1ccc(-c2nc3cc(C(=O)NCCCc4ncc[nH]4)ccc3nc2-c2ccc(F)cc2)c(F)c1 [Compound I-415, 3-(2-fluoro-4-methoxyphenyl)-2-(4-fluorophenyl)-N-[3-(1H-imidazol-2-yl)propyl]quinoxaline-6-carboxamide] | 75 | 0.1 to 0.5 | 2
C#Cc1ccc(-c2nc3cc(C(=O)NCCCc4ncc[nH]4)ccc3nc2-c2ccc(F)cc2)cc1 [Compound I-416, 3-(4-ethynylphenyl)-2-(4-fluorophenyl)-N-[3-(1H-imidazol-2-yl)propyl]quinoxaline-6-carboxamide] | 76 | 0.1 to 0.5 | 2
O=C(NCCCc1ncc[nH]1)c1ccc2nc(-c3ccc(F)cc3)c(-c3ccc4nccn4c3)nc2c1 [Compound I-417, 2-(4-fluorophenyl)-N-[3-(1H-imidazol-2-yl)propyl]-3-(imidazo[1,2-a]pyridin-6-yl)quinoxaline-6-carboxamide] | 81 | 0.1 to 0.5 | 2
O=C(NCCCc1ncc[nH]1)c1ccc2nc(-n3cncn3)c(-c3ccc(F)cc3)nc2c1 [Compound I-418] | 60 | 0.5 to 1 | 3
Nc1ccc(CCCNC(=O)c2ccc3nc(-c4ccc(F)cc4)c(-c4ccc(F)cc4)nc3c2)cn1 [Compound I-419, N-[3-(6-aminopyridin-3-yl)propyl]-2,3-bis(4-fluorophenyl)quinoxaline-6-carboxamide] | 52 | 0.5 to 1 | 3
O=C(NCCCc1ncc[nH]1)c1ccc2nc(OCCc3ccccc3)c(-c3ccc(F)cc3)nc2c1 [Compound I-420, 3-(4-fluorophenyl)-N-[3-(1H-imidazol-2-yl)propyl]-2-(2-phenylethoxy)quinoxaline-6-carboxamide] | 97 | < 0.1 | 2
CC(C)Oc1nc2ccc(C(=O)NCCCc3ncc[nH]3)cc2nc1-c1cccc(SC(F)(F)F)c1 [Compound I-421, N-[3-(1H-imidazol-2-yl)propyl]-2-isopropoxy-3-{3-[(trifluoromethyl)sulfanyl]phenyl}quinoxaline-6-carboxamide] | 78 | 0.1 to 0.5 | 1
Cc1cc(-c2nc3cc(C(=O)NCCCc4ncc[nH]4)ccc3nc2-c2ccc(F)cc2)c(C)s1 [Compound I-422, 3-(2,5-dimethyl-3-thienyl)-2-(4-fluorophenyl)-N-[3-(1H-imidazol-2-yl)propyl]quinoxaline-6-carboxamide] | 92 | < 0.1 | 3
